US9878007B2, “Syndecan peptides and polypeptides as inhibitors of vascular endothelial growth factor receptor-2 (VEGFR2) and very late antigen-4 (VLA-4)” (Wisconsin Alumni Research Foundation, priority 2015, dated 2018)
Values belong to the substance of their own block, whether it stands above or below them.

How the values were obtained:
HMEC-1 cells [1] = assay: In vitro tube formation assay of HMEC-1 cells on Matrigel; format: cell-based; settings: 24 hrs, 10 μM peptides
Description: (§1) FIGS. 8A-H. HPSE mediated the Sdc1-coupled VEGFR2 complex in endothelial cells induces angiogenesis. (FIG. 8A) Lysates from HPSE^low, HPSE^high and HMEC-1 cells are probed by immunoblotting for expression of HPSE. (FIG. 8B) HMEC-1 cells were seeded at equal density and grown in serum-free media for 24 hr in the absence or presence of 125 μg/ml of the HPSE inhibitor SST0001. After 24 hr, conditioned media were harvested, and the level of shed Sdc1 in the conditioned medium from each condition was determined by immunoblotting. (FIG. 8C) HMEC-1 cell lysate was incubated overnight with glutathione beads coated with GST or GST-S1ED. Capture of VLA-4 or VEGFR2 was detected by immunoblotting. (FIG. 8D) HMEC-1 cells were plated on IIICS for 3 hr and double stained for VLA-4 and Sdc1, VEGFR2 and Sdc1, or VLA-4 and VEGFR2. (FIG. 8E) HMEC-1 cells were treated with DMSO, VLA-4 blocking antibody P1H4, β1-integrin blocking antibody mAb13, 10 μg/ml MMP9 blocking antibody, 125 μg/ml HPSE inhibitor SST0001, Vandetanib, VEGFR2 blocking antibody, 30 μM S1ED^210-233 or 30 μM S1ED^214-240 and then plated on IIICS. Images were taken from random field with 200× magnification for counting attached and spread cells. (FIG. 8F) HMEC-1 cells were plated on IIICS in the presence of 10 μM of S1ED^210-236, S1ED^210-233, S1ED^215-240, and S1ED^214-240. Lysates were probed on immunoblots with antibodies against pY^1175 VEGFR2 and VEGFR2. (FIG. 8G) Transwell migration assays towards IIICS (for 16 hr) were performed for HMEC-1 cells in the presence of P1H4, SST0001, Anti-MMP9, Vandetanib, S1ED^210-236, S1ED^210-233, and S1ED^214-240. Images were taken from random field with 200× magnification for counting migrated cells. (FIG. 8H) A 96-well plate coated with 50 μl Matrigel containing 100 μg/ml IIICS per well was solidified at 37° C. for 2 hrs. HMEC-1 cells (2.5×10^4 cells/well) were seeded into the plate and cultured in media containing VEGF, SST0001, 10 μM of S1ED^210-236, S1ED^210-233, S1ED^215-240, and S1ED^214-240 for 24 hrs. Enclosed capillary networks of tubes were taken from random field with 200× magnification.

CAG myeloma cells [2] = assay: Cell spreading / attachment assay of CAG myeloma cells on FN or VCAM-1; format: cell-based, human
VEGFR2 = biological target: T1, VEGFR2 (Homo sapiens, UniProt P35968); assay: GST pull down assay: capture of VEGFR2 by GST-S1ED; format: binding; settings: HPSE^low cell lysates; peptide 30 M [sic]
T1 construct: endogenous in cells; host or cells: CAG human myeloma cells (HPSE^low = empty vector; HPSE^high = human HPSE cDNA)
Description: (§2) FIGS. 6A-G. Peptides derived from the active site in Sdc1 activate or inhibit adhesion and invasion. (FIG. 6A) Transwell migration assays towards FN (for 16 hrs) were performed for HPSE low or high cells in the presence of 0, 0.3, 3, and 30 μM of S1ED^210-240. Cells migrating to the bottom side of the filter were counted from five random images for each treatment. (FIG. 6B) The sequence of S1ED210-240 is shown (SEQ ID NO: 3), as well as […] truncation mutants of the peptide (SEQ ID NOs: 5, 2, 4 and 7). Amino acids shown in red appear necessary for the spreading and invasive activity. (FIG. 6C) Images of HPSE^low and HPSE^high cells plated on FN for 2 hr. (FIG. 6D) HPSE^low cells were treated with 0, 0.3, 3, 10 and 30 μM of S1ED^210-236, S1ED^210-233, or S1ED^214-240, plated on FN for 2 hr, fixed and stained with fluorescent phalloidin. Cells from five random images were quantified for cell attachment and cell spreading. (FIG. 6E) HPSE^high cells were treated with 0, 3, 10, and 30 μM of S1ED^210-236, S1ED^210-233, and S1ED^214-240, plated on FN for 2 hr, then fixed, imaged and quantified as in FIG. 6D. (FIG. 6F) Transwell migration assays towards FN (for 16 hr) were performed for HPSE^low or HPSE^high cells in the presence of 30 μM of S1ED^210-236, S1ED^210-233, S1ED^214-240 and Vandetanib. (FIG. 6G) HPSE^low cell lysates were incubated overnight with glutathione beads coated with GST or GST-S1ED in the absence or presence of 30 μM of S1ED^210-236, S1ED^210-233, and S1ED^214-240. Capture of VLA-4 or VEGFR2 was detected by immunoblotting. Sequences in FIG. 6B are 210-240 (SEQ ID NO: 3), 210-236 (SEQ ID NO: 2), 210-233 (SEQ ID NO: 4), 214-240 (SEQ ID NO: 5) and 214-236 (SEQ ID NO: 7).
(§3) CAG cells were washed with CMF-PBS and then lysed for 20 min on ice in lysis buffer. Cell debris was removed by centrifugation at 13000 rpm for 20 min at 4° C. Whole cell lysates were then incubated at 4° C. overnight with either 3 μM GST or 3 μM GST-S1ED in the absence or presence of 1 μM, 3 μM, and 10 μM S1ED^210-240 peptide. GST or GST-S1ED was captured by addition of glutathione Sepharose and the beads were washed with ice-cold lysis buffer and CMF-PBS, prior to addition of SDS-PAGE sample buffer and analyszed by electrophoresis and western blotting as described previously.

HMEC-1 cells [3] = assay: Attachment and spreading of HMEC-1 cells on IIICS; format: cell-based; settings: plated on IIICS; 30 μM peptides, 125 μg/ml SST0001, 10 μg/ml MMP9 blocking antibody
Description: FIGS. 8A-H. HPSE mediated the Sdc1-coupled VEGFR2 complex in endothelial cells induces angiogenesis. (FIG. 8A) Lysates from HPSE^low, HPSE^high and HMEC-1 cells are probed by immunoblotting for expression of HPSE. (FIG. 8B) HMEC-1 cells were seeded at equal density and grown in serum-free media for 24 hr in the absence or presence of 125 μg/ml of the HPSE inhibitor SST0001. After 24 hr, conditioned media were harvested, and the level of shed Sdc1 in the conditioned medium from each condition was determined by immunoblotting. (FIG. 8C) HMEC-1 cell lysate was incubated overnight with glutathione beads coated with GST or GST-S1ED. Capture of VLA-4 or VEGFR2 was detected by immunoblotting. (FIG. 8D) HMEC-1 cells were plated on IIICS for 3 hr and double stained for VLA-4 and Sdc1, VEGFR2 and Sdc1, or VLA-4 and VEGFR2. (FIG. 8E) HMEC-1 cells were treated with DMSO, VLA-4 blocking antibody P1H4, β1-integrin blocking antibody mAb13, 10 μg/ml MMP9 blocking antibody, 125 μg/ml HPSE inhibitor SST0001, Vandetanib, VEGFR2 blocking antibody, 30 μM S1ED^210-233 or 30 μM S1ED^214-240 and then plated on IIICS. Images were taken from random field with 200× magnification for counting attached and spread cells. (FIG. 8F) HMEC-1 cells were plated on IIICS in the presence of 10 μM of S1ED^210-236, S1ED^210-233, S1ED^215-240, and S1ED^214-240. […]

CAG myeloma cells [4] = assay: Cell spreading / attachment assay of CAG myeloma cells on FN or VCAM-1; format: cell-based, human; settings: on VCAM-1; 0.3 μM peptide
Description: Nitrocellulose-coated slides were coated for 2 hr at 37° C. with 40 μg/ml FN (kindly provided by Dr. Donna Peters, University of Wisconsin-Madison) or 5 μg/ml recombinant VCAM-1/Fc chimera (R&D Systems) in calcium and magnesium-free PBS (CMF-PBS; 135 mM NaCl, 2.7 mM KCl, 10.2 mM Na2HPO4-7H20 and 1.75 mM KH2PO4, pH7.4). Slides were blocked for 1 hr at 37° C. with RPMI 1640 containing 1% heat-denatured BSA (plating medium). Cells in plating medium were allowed to attach and spread for 2.5 hr at 37° C. Slides were fixed in 4% EM grade paraformaldehyde (Electron Microscopy Sciences) in CMF-PBS and labeled for 30 min in 0.13 μM rhodamine phalloidin (Invitrogen) in CMF-PBS. Coverslips were mounted in non-fluorescing mounting medium (Immumount; Thermo Shandon) and allowed to dry. All images were acquired with a Nikon Microphot FX microscope using a 20× objective (Nikon; Ex 541-551, DM 580, Barrier 590), Photometric CoolSnap ES camera, and version 7.7.3.0 Metamorph© Imaging software (Molecular Devices). All images represent results from triplicate wells and at least three independent experiments.

VLA-4 = biological target: T2, VLA-4 (Homo sapiens, UniProt P05556+P13612); assay: GST pull down assay: capture of VLA-4 by GST-S1ED; format: binding; settings: HPSE^low cell lysates; peptide 30 M [sic]
T2 construct: the α4-integrin (VLA-4), which is expressed on myeloma cells; endogenous in cells; host or cells: CAG human myeloma cells (HPSE^low), whole-cell lysate
Description: as §2, §3

HMEC-1 cells [5] = assay: Transwell migration / invasion assay of HMEC-1 cells; format: cell-based; settings: 16 hr
Description: as §1, with “HMEC-1 cells (2.5×10^4 cells/well) were seeded into the plate and cultured in media containing VEGF, SST0001, 10 μM of S1ED^210-236, S1ED^210-233, S1ED^215-240, and S1ED^214-240 for 24 hrs. Enclosed capillary networks of tubes were taken from random field with 200× magnification.” left out
The bottom chambers of Transwell filter chambers (8 μm pores; Corning) were coated with 40 μg/ml of FN. […] Cells from at least five random fields were counted.

[6] = on FN, 2 hr, 0, 3, 10 and 30 μM peptide

T2 sequence (P13612 34-1032): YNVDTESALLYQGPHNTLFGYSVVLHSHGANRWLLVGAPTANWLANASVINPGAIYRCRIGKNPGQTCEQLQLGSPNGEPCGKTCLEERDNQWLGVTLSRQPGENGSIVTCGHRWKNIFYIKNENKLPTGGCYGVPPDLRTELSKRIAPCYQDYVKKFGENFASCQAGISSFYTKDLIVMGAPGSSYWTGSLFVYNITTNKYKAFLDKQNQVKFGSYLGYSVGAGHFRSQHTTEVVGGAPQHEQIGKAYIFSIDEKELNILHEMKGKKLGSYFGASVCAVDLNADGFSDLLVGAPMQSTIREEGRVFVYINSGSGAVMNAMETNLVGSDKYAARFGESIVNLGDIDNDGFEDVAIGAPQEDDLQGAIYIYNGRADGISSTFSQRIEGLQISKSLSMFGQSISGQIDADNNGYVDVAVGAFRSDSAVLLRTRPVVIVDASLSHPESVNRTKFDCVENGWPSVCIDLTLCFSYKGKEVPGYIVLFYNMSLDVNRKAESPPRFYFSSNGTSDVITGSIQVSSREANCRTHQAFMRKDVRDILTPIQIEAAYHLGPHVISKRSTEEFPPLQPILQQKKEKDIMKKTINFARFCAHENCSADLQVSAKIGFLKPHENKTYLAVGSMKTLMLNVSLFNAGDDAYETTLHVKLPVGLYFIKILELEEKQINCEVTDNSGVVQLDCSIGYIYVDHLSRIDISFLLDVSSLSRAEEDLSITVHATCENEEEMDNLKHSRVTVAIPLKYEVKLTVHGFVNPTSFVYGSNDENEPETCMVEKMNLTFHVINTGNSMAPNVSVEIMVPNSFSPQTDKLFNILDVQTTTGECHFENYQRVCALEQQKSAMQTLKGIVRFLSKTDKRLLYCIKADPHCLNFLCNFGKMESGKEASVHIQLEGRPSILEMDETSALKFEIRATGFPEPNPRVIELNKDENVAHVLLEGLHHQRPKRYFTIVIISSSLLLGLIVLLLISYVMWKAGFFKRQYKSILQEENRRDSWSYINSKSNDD
T2 sequence (P05556 21-798): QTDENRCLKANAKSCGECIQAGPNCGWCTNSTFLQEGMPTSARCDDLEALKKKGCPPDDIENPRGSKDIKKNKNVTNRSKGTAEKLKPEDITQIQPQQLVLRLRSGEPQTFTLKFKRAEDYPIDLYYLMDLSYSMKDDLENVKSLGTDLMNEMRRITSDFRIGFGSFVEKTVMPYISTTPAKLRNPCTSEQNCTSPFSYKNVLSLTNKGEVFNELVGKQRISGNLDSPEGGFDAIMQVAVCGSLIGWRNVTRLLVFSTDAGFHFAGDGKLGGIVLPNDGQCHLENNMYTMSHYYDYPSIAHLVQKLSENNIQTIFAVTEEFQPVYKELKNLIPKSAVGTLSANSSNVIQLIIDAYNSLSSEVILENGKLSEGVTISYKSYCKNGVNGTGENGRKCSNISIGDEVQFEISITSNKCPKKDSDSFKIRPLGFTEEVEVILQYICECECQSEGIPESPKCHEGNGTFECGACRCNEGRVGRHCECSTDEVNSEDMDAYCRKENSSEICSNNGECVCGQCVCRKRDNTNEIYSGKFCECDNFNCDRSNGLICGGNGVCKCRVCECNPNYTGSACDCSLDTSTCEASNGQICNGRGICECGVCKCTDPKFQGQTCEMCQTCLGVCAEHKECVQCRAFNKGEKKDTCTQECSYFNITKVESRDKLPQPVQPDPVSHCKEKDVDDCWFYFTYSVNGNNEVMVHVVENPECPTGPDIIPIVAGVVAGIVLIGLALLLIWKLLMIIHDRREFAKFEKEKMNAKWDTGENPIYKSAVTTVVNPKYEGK
T1 sequence (P35968 20-1356): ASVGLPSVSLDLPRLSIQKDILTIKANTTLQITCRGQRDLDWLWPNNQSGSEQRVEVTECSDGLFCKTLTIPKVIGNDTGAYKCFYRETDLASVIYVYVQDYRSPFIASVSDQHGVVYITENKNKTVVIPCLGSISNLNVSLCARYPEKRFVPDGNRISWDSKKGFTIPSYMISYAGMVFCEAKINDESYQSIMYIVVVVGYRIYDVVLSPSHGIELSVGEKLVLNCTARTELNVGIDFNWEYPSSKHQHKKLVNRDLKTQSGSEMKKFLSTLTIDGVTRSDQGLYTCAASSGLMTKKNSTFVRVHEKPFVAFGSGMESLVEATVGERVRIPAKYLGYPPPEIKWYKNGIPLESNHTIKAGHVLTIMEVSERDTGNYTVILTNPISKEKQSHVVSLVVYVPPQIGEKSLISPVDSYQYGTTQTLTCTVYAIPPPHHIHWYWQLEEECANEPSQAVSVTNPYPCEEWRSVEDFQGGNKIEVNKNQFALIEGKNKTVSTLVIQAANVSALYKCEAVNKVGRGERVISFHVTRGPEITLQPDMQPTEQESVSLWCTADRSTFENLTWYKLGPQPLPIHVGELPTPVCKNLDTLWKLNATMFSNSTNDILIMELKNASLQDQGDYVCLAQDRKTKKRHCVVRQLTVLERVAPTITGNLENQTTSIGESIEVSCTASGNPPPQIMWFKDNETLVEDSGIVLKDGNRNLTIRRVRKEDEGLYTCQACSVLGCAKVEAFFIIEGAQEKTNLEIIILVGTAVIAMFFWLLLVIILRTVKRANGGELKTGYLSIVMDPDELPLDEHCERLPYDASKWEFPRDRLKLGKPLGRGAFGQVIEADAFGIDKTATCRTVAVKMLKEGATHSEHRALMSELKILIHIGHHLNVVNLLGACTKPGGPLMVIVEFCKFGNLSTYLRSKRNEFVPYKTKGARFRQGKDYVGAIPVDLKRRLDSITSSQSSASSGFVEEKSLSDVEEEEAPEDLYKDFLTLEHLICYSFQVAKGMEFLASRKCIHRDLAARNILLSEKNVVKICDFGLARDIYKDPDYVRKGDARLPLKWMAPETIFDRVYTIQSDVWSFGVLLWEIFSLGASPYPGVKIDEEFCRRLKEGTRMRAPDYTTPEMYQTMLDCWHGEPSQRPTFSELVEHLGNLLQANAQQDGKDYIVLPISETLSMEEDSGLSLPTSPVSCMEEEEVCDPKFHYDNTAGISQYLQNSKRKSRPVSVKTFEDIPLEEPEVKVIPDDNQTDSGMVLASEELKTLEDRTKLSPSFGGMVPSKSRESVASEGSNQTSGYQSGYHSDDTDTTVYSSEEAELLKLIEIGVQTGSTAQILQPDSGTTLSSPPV

Substance: VEGF [reference compound]
- tube formation by HMEC-1 cells (HMEC-1 cells [1]): not enhanced by VEGF
- induction of HPSE^low cell spreading by VEGF (CAG myeloma cells [2]; 20 ng/ml VEGF): failed to induce spreading of the cells

- competition for capture of VEGFR2 by GST-S1ED (VEGFR2): only competes for capture of VEGFR2
- competition for capture of VLA-4 by GST-S1ED (VLA-4): only competes for capture of VEGFR2
Substance: S1ED^214-240: syndecan-1 ectodomain peptide, residues 214-240 (SEQ ID NO: 5) (ETSGENTAVVAVEPDRRNQSPVDQGAT)
- VLA-4 dependent spreading of HMEC-1 cells (HMEC-1 cells [3]): prevented
- tube formation by HMEC-1 cells (HMEC-1 cells [1]): blocks tube formation
- induction of HPSE^low cell spreading by S1ED peptides (CAG myeloma cells [4]): do not
- HPSE^low cell spreading (CAG myeloma cells [2]; on FN, 2 hr, 0, 0.3, 3, 10 and 30 μM peptide): does not cause cell spreading
- HPSE^high cell adhesion (CAG myeloma cells [2]; [6]): has no effect on cell adhesion
- HPSE^high cell spreading (CAG myeloma cells [2]; [6]): blocks the spreading of HPSE^high cells
- HPSE^low cell adhesion (CAG myeloma cells [2]; on FN, 2 hr, high concentrations (30 μM)): does not cause cell spreading or block adhesion
- invasion of HMEC-1 cells (HMEC-1 cells [5]): all block invasion
